Data from a melting point compilation (Tetko et al.; mined from patent text by program, amines drawn as free bases though some values may be those of a salt).

Row | melting point | SMILES
1 | 278 to 279 °C | Cc1nc(N)c2nc(C)n(Cc3cc(-c4ccc(F)cc4)no3)c2c1C
2 | 155 to 157 °C | N#Cc1ccc(S(=O)(=O)Nc2cccnc2Nc2ccccc2)cc1
3 | 142 °C | COc1ccc([C@]2(C)CNC(=O)O2)cc1O
4 | 72 to 74 °C | Cc1cccc(N2CCN(CCC3CN(C)C(=O)O3)CC2)c1 (stereo not drawn)
5 | 45 to 47 °C | COc1ccc2cc([C@H](C)C(=O)NOCC(=O)N3CCC(CO[N+](=O)[O-])CC3)ccc2c1
6 | 157 to 159 °C | CCCCc1nc2c(N)nc3ccccc3c2n1CCCC(C)=NOC
7 | 172 to 174 °C | Cc1ccc(C(N)=S)c(N)c1
8 | 214 to 216 °C | Cc1ccccc1NC(=O)c1ccc(C(=O)N2Cc3ccccc3Cc3ccccc32)cc1
9 | 65 to 67 °C | Fc1cc2c(c(-c3c(Cl)cccc3Cl)c1)OC(CN1CCCC1)C2 (stereo not drawn)
10 | 165 to 166 °C | Cc1nc(N2CCC(Cc3ccc(OC(F)(F)F)cc3)C2=O)sc1C(=O)NCc1ccc(F)cc1 (stereo not drawn)
11 | 130 °C | Cn1nc(-c2ccc(Cl)cc2)cc1N=Cc1ccsc1
12 | 147 to 150 °C | CN(C)C(=O)N1CCC(=NO)c2cc(F)ccc21
13 | 41 to 42 °C | COc1ccc(C2(C#Cc3ccccn3)CCC3(CC2)OCCO3)cc1OC1CCCC1
14 | 113 to 116 °C | CSc1ccc2oc3cc(F)ccc3c(=O)c2c1
15 | 218 to 219 °C | Cc1c(N2C[C@@H](NC(=O)OC(C)(C)C)C3(CC3)C2)c(F)c(N)c2c(=O)c(C(=O)O)cn(C3CC3)c12
16 | > 270 °C | COc1cc2c(c(F)c1CNC1CCCNC1c1ccccc1)N(C)C(=O)CC2(C)C (stereo not drawn)
17 | 91 to 92 °C | C=C1CCCCCCC(C(=O)OCC)NC1=O (stereo not drawn)
18 | 147 to 148 °C | COc1ccc(CNc2n[nH]c(N=CN(C)C)c2C#N)cc1
19 | 267 to 270 °C | CCOC(=O)c1c[nH]c2c(F)c(C(C)=O)c(F)cc2c1=O
20 | 98 to 101 °C | CCCCCN(C)C(=O)c1ccc(Cl)nn1
21 | 115 to 120 °C | O=C(CC(F)=C(F)F)NS(=O)(=O)C(F)(F)F
22 | 228 to 229 °C | Nc1c(N=O)c(=O)n(CC2CC2)c(=O)n1CC1CC1
23 | 91.5 to 92.5 °C | COc1ccnc(CSCCN=C(NC#N)SC)c1
24 | 139 to 140 °C | CC(CC(=O)O)=NNC(=N)N

Row | melting point | SMILES
25 | 144 to 146 °C | NC(=O)Cc1cc(Oc2ccc3c(ccn3C(=O)Nc3cc(N4CCOCC4)cc(C(F)(F)F)c3)c2)ncn1
26 | 206 to 208 °C | Nc1nc(CCc2ccccc2)nc2oc(-c3ccco3)nc12
27 | 86 to 89 °C | CCNC(=O)n1nc(Oc2c(Cl)cc(C(F)(F)F)cc2Cl)cc1CC
28 | 120 to 127 °C | CC(C)(C)CC(C)(C)c1cc(N=Nc2cc(C(F)(F)F)ccc2Cl)c(O)c(C(C)(C)c2ccccc2)c1
29 | 280 to 282 °C | CCOC(=O)CCc1ccc2c(c1)c(-c1cc3cccnc3n1S(=O)(=O)c1ccc(C)cc1)cn2C
30 | 134 to 137 °C | CCCc1ccnc2c(=O)[nH]c(-c3ccccc3OCC)nc12
31 | 156 to 159 °C | CCOC(=O)N1CCc2c(sc3nc(-c4ccc(Cl)cc4)cn23)C1
32 | 113 to 115 °C | CCCCCCCCCCCCn1nnnc1C(C(=O)Nc1c(C(C)C)cccc1C(C)C)c1ccccc1 (stereo not drawn)
33 | 118 to 120 °C | CC(=O)Oc1c(Cc2ccccc2)cc(C(C)=O)c2ccccc12
34 | 144 to 146 °C | COc1ccc(F)c(C(=O)O)c1
35 | 185 to 187 °C | Clc1cccnc1-c1cc(OCCc2ccccn2)c2[nH]nc(Nc3nccs3)c2c1
36 | 157 to 158 °C | Cn1c(C=O)nnc1NCCCOc1cccc(CN2CCCCC2)c1
37 | 185 to 187 °C | CC(=NO)C(C)(C)NCC(CNC(C)(C)C(C)=NO)CC(O)Cn1ccnc1[N+](=O)[O-] (stereo not drawn)
38 | 210 °C | Cn1cc(-c2ccccc2)c(=S)c(-c2cccc(C(F)(F)F)c2)c1
39 | 84 °C | CC(C)(C)C(O)C(CSc1ccc(Cl)cc1)n1cncn1 (stereo not drawn)
40 | 132 to 133 °C | COc1ccc2c(c1)SC(C#N)C(=O)CO2 (stereo not drawn)
41 | 150 °C | CCCCn1ccc(N2CCC(c3ccc(C(C)(C)O)cc3F)CC2)c(Cl)c1=O
42 | 110 to 111 °C | CC(C)(C)c1cc(C(C#N)N2CCCCC2)cc(C(C)(C)C)c1O (stereo not drawn)
43 | 60 to 65 °C | O=C=Nc1ccc(C(=S)OC2CCCCC2)c(Cl)c1
44 | 189 to 192 °C | Cc1ccc2cc(NC(=O)c3cccc(OCc4ccc(N)nc4)c3)ccc2n1
45 | 163 to 164 °C | Cc1nc(-n2cnn(CCNc3ccc(F)cc3)c2=O)sc1C(=O)NCc1cccnc1
46 | 183 to 185 °C | CC1CCC(c2ccc(OCC(=O)O)c(Cl)c2Cl)=CC1=O (stereo not drawn)
47 | 139 °C | C=C1C=Cc2cc(C(=O)Nc3ccccc3)ccc2OC1
48 | 69 to 70 °C | CCn1c(OC(C)C)n[nH]c1=O

Row | melting point | SMILES
49 | 75 to 76 °C | COCOC1CCC2(C)C(=CCC3C2CCC2(C)C(COCc4ccccc4)CCC32)C1 (stereo not drawn)
50 | > 245 °C | CN1CCN(Cc2ccc(-c3cc4c(Nc5ccc6[nH]ccc6c5)c(C#N)cnc4s3)nc2)CC1
51 | 108 to 110 °C | CC(NC(=O)OCc1ccccc1)P(C)(=O)OCc1ccccc1 (stereo not drawn)
52 | 156 to 158 °C | N#Cc1ccc(CCc2ccc(OCc3ccc4ccccc4n3)cc2)cc1
53 | 38 to 42 °C | CC(C)(C)COC(=O)c1cc(Cl)c(F)c(Cl)c1F
54 | 70 to 75 °C | CCOC(=O)c1cc(=O)c2c(OCC(O)COc3cccc(C(F)(F)F)c3)cccc2o1 (stereo not drawn)
55 | 127 to 128 °C | Oc1cnn(-c2ccc(Cl)cc2)c1
56 | 178 to 179 °C | C[C@H](CS(C)(=O)=O)Nc1n[nH]c2nc(Oc3ccc(F)cc3F)ncc12
57 | 168 °C | c1ccc(Nc2ccc(-c3ccc(N(c4ccccc4)c4ccccc4)cc3)cc2)cc1
58 | 88.3 to 89 °C | CC1=C(C(O)c2ccc3c(c2)CCN(C(N)=O)C3)C(C)(C)CCC1 (stereo not drawn)
59 | 169 to 171 °C | COC(C)C(=O)Nc1c(C(=O)c2ccccc2)[nH]c2cc(Cl)ccc12 (stereo not drawn)
60 | 204 to 210 °C | O=C(O)c1cc2c(C(F)(F)F)c(F)ccc2[nH]1
61 | 70 to 72 °C | O=C1c2ccccc2C(O)N1CCCCCO[N+](=O)[O-] (stereo not drawn)
62 | 200 °C | CNC(=O)Nc1ccc2c(c1)C(C)(N)c1c-2[nH]c(=O)c2nccn12 (stereo not drawn)
63 | 136 to 138 °C | CC(=O)Oc1ccc(C(=O)O)c(C)c1
64 | 134 to 136 °C | CC(C)C(C#N)c1ccc(O)c(O)c1 (stereo not drawn)
65 | 155 to 158 °C | CC(C)(O)COc1c(-c2ccc(S(N)(=O)=O)cc2)cnn(-c2ccc(F)cc2)c1=O
66 | 66 to 67 °C | CC(=O)[C@H]1CC[C@H](CNC(=O)OCc2ccccc2)CC1
67 | 122 to 123 °C | Cc1cccc(COc2cccc(OCc3ccc(C(C)(C)C)cc3)c2)c1C(=O)O
68 | 40 to 41 °C | COc1ccc(-c2ccc(C)c3occc23)cc1
69 | 64 to 65 °C | COc1ccc(C#N)c(F)c1OC
70 | 160 to 162 °C | CCCc1cc(C#N)sc1-c1ccc2c(c1)C(C)(C)OC(=O)N2
71 | 128 °C | CC(=NN(C)C(=O)c1ccccc1)c1ccncc1
72 | 103 to 105 °C | CC(C)c1c(C=O)c(-c2ccc(F)cc2)nn1-c1ccccc1

Row | melting point | SMILES
73 | 301 to 306 °C | Cc1ccc(S(=O)(=O)NC(Cc2ccccc2)C(=O)NCCCCC(C(=O)O)N(CC(C)C)S(=O)(=O)c2ccc(C)cc2)cc1 (stereo not drawn)
74 | 264 to 265 °C | Clc1ccc(-c2[nH]nc(N3CCNCC3)c2-c2ccncc2)cc1
75 | 222 to 224 °C | O=C1OC2(CCN(C(=O)Nc3cnc(-c4ccccc4)cn3)CC2)c2cc(F)ccc21
76 | 197 to 199 °C | O=C(O)C1CC(=O)N(c2ccccc2)N1 (stereo not drawn)
77 | 115 to 125 °C | CC(=O)Cc1ccc2c(c1)C1(C)CCN(C)C1N2C (stereo not drawn)
78 | 160 °C | Cc1nnc(-c2ccccc2)c2nc(OCc3ncnn3C)c(C3CCC3)n12
79 | 141 to 142 °C | COc1cccc(N(CCN2CCC(C(=O)c3ccc(F)cc3)CC2)C(=O)c2cccc(N)c2)c1
80 | 120 °C | CCN(CC)c1ccc([N+](=O)[O-])c(N2CCN(C(C)=O)CC2)n1
81 | 71 to 75 °C | COC(=O)c1c(C(F)F)nc(C(F)(F)F)c(C(=O)Cl)c1CC(C)C
82 | 212 to 214 °C | O=C1c2ccccc2-c2c1c(Cl)nc1cc(OCc3ccccc3)ccc21
83 | 181 to 182 °C | CC(C)OC(=O)N1CCC(NC(=O)N2CCn3c(c(C(N)=O)c(C#N)c3C3CC3)C2)CC1
84 | 92 to 94 °C | CCCCCCCCCCOc1cc(O)cc(C(=O)OC)c1
85 | 208 to 213 °C | O=C(O)c1cc(Br)c(Cl)cc1O
86 | 178 to 180 °C | COCc1cc(-c2ncc3[nH]c4cccc(Cc5ccccc5Cl)c4c3c2COC)no1
87 | 105 to 106 °C | CN(C)C(=O)C1(CCCN2CCCCC2)CC=CCC1c1ccccc1 (stereo not drawn)
88 | 158 to 160 °C | Cc1ccccc1Nc1nc(N(C)c2ccccc2)c2cccc(OCCO)c2n1
89 | 81 to 84 °C | CCc1n[nH]c(CC)c1Oc1cccc(C#N)c1
90 | 157 to 158 °C | C=C1N(S(=O)(=O)c2ccc(C)cc2)C(=O)OC12CCN(Cc1ccccc1)CC2
91 | 92.7 to 93.5 °C | CC(C)=CCOc1ccc(OCC=C(C)C)c(C(=O)NCCc2ccncc2)c1
92 | 101 to 103 °C | O=C(c1ccc(F)cc1)N1CC2CC2(c2ccccc2)C1 (stereo not drawn)
93 | 208 °C | Cc1cn(-c2ncccn2)cc1C(=O)NC(=N)N
94 | 205 to 209 °C | COc1ccc(NC(=O)c2ccc(F)c(F)c2)cc1NS(=O)(=O)c1cccc(N)c1

Row | SMILES | melting point
95 | Cc1nc(CCl)c(Br)s1 | 154 to 156 °C
96 | FC(F)(F)C1(c2cc(Cl)cc(Cl)c2)CC(c2ccc(-n3ccnc3)cc2)=NO1 (stereo not drawn) | 193 to 195 °C
97 | CN1C(=O)[C@H](NC(=O)CCc2ccc(Cl)cc2Cl)N=C(c2ccccc2)c2cc(N)ccc21 | 179 to 180 °C
98 | COc1ccc2c(c1)C(CCN1CC=C(c3ccccc3)CC1)C(C)N2C(C)=O (stereo not drawn) | 113 to 115 °C
99 | C1=C(c2c[nH]c3ccccc23)CCN(CC2CCc3ccccc32)C1 (stereo not drawn) | 168 to 170 °C
100 | CN1C(=O)CN=C(c2ccccc2F)c2cc(NC(=O)NCCO)ccc21 | 156 to 160 °C
101 | COc1ccc2c(c1)C13CCN(C)C(C2)C1OCOC3 (stereo not drawn) | 134 to 135 °C
102 | CC1N=C(c2ccccc2)c2cc(Cl)ccc2NC1=S (stereo not drawn) | 250 °C
103 | CCCCN1CC=C(c2c[nH]c3ccc(NS(C)(=O)=O)cc23)CC1 | 202 to 204 °C
